In one data set the target is T1, OX1 (Homo sapiens, UniProt O43613).
T1 construct: expressed in transfected cells; host or cells: CHO (CHO-OX1, kept under selection antibiotic)
T1 sequence (O43613 1-425): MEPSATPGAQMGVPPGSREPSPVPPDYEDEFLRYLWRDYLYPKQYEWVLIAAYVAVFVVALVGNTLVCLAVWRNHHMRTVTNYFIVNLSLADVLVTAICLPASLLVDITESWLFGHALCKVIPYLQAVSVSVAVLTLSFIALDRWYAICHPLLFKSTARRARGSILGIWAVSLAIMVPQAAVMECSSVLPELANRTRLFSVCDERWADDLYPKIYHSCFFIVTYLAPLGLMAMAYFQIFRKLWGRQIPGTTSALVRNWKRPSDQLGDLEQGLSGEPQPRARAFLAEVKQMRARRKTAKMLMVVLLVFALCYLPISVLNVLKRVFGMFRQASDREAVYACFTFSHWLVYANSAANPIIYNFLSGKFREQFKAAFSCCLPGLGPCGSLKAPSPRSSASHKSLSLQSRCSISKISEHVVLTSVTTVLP
As to the kind of experiment: Orexin receptor cell-based functional assay, [Ca2+]i by FLIPR, CHO-OX1 cells. The following applies: CHO-OX1 cells, [Ca2+]i by FLIPR, antagonist dose-range 0.1 nM-10 μM, EC90 of OXA; read-out: OX1. The procedure, abridged: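 CHO cells expressing human OX1 or OX2 loaded with calcium dye plus 2.5 mM probenecid at 37° C (calcium4, 30 min, or calcium6, 2 h), then exposed to compounds (0.1 nM-10 μM) for 30 min. Intracellular Ca2+ measured on FLIPR; antagonist format.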

In the next data set the target is T2, CYP3A4 (Homo sapiens, UniProt P08684).
T2 construct: pre-incubated with human liver microsomes and NADPH; from tissue; host or cells: human liver microsomes
T2 sequence (P08684 whole entry): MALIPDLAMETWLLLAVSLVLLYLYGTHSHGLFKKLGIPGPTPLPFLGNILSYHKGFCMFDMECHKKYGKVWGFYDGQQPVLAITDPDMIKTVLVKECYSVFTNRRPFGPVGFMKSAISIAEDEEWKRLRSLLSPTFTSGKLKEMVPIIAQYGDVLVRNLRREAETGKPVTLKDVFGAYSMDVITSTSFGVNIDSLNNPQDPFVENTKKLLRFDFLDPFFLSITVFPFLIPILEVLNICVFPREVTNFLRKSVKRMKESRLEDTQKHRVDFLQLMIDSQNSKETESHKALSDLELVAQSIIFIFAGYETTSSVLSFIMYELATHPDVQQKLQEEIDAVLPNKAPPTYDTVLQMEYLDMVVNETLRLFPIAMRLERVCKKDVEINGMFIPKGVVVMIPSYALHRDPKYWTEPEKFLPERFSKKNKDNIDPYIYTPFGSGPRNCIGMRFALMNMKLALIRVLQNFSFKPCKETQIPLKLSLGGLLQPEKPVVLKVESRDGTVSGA
Kind of data set: Cytochrome P450 inhibition assay (midazolam hydroxylation). Format: in vitro ADME. The following applies: human, human liver microsomes, probe midazolam (hydroxylation to 1′-hydroxymidazolam), 10 μM test compound, midazolam at approximately its Km. The procedure, abridged: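 Human liver microsomes; CYP3A4 activity as midazolam 1′-hydroxylation with substrate near Km, with or without 10 μM test compound, read as percent inhibition. For time-dependent inhibition, parallel samples were preincubated 30 min with NADPH before substrate, and percent inhibition compared with non-preincubated samples.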
On the technique in general: Liver microsomes are a subcellular fraction often used to study metabolism.

Structures are written as SMILES.

With `Cc1ccc(-c2ccccn2)c(C(=O)N2CCC[C@@H](C)[C@H]2CNc2ncc(F)cn2)c1` [Example A179, ((2S,3R)-2-(((5-Fluoropyrimidin-2-yl)amino)methyl)-3-methylpiperidin-1-yl)(5-methyl-2-(pyridin-2-yl)phenyl)methanone], the IC50 at OX1 came out at 490 nM. Moreover, at 10 µM the inhibition against CYP3A4 was 67%. In the same order, the values of `Cc1ccc(-c2ncccn2)c(C(=O)N2CCC[C@@H](C)[C@H]2CNc2nc3cc(Cl)ccc3o2)c1` [Example A205, ((2S,3R)-2-(((5-Chlorobenzo[d]oxazol-2-yl)amino)methyl)-3-methylpiperidin-1-yl)(5-methyl-2-(pyrimidin-2-yl)phenyl)methanone] are 11 nM and 72%.

As for `Cc1ccc(-n2cccn2)c(C(=O)N2CCC[C@@H](C)[C@H]2CNc2ccc(C#N)nn2)c1` [Example A156, 6-((((2S,3R)-3-Methyl-1-(5-methyl-2-(1H-pyrazol-1-yl)benzoyl)piperidin-2-yl)methyl)amino)pyridazine-3-carbonitrile], the IC50 on OX1 is more than 1000 nM. Besides, the inhibition at 10 µM at CYP3A4 came to 53%. For `Cc1ccc(-c2ncccn2)c(C(=O)N2CCC[C@@H](C)[C@H]2CNc2ccc(C#N)cn2)c1` [Example A139, 6-((((2S,3R)-3-Methyl-1-(5-methyl-2-(pyrimidin-2-yl)benzoyl)piperidin-2-yl)methyl)amino)nicotinonitrile], in that order: 140 nM and 41%. In the same order, the values of `Cc1ccc(-n2nccn2)c(C(=O)N2CCC[C@@H](C)[C@H]2CNc2ncc3cc(Br)ccc3n2)c1` [Example A122, ((2S,3R)-2-(((6-Bromoquinazolin-2-yl)amino)methyl)-3-methylpiperidin-1-yl)(5-methyl-2-(2H-1,2,3-triazol-2-yl)phenyl)methanone] are 96 nM and 72%. For `Cc1ccc(-n2ncc(C)n2)c(C(=O)N2CCC[C@@H](C)[C@H]2CNc2nnc(C(F)(F)F)s2)c1` [Example A135, ((2S,3R)-3-Methyl-2-(((5-(trifluoromethyl)-1,3,4-thiadiazol-2-yl)amino)methyl)piperidin-1-yl)(5-methyl-2-(4-methyl-2H-1,2,3-triazol-2-yl)phenyl)methanone], in that order: 21 nM and 80%. For `Cc1ccc(-c2ccccn2)c(C(=O)N2CCC[C@@H](C)[C@H]2CNc2ncc(C(F)(F)F)cn2)n1` [Example A167, ((2S,3R)-3-Methyl-2-(((5-(trifluoromethyl)pyrimidin-2-yl)amino)methyl)piperidin-1-yl)(6′-methyl-[2,3′-bipyridin]-2′-yl)methanone], the IC50 at OX1 worked out at 5 nM. Moreover, the inhibition at 10 µM against CYP3A4 was found to be 45%. For `Cc1ccc(-n2nccn2)c(C(=O)N2CCC[C@@H](C)[C@H]2CNc2cccc(C)n2)c1` [Example A79, ((2S,3R)-3-Methyl-2-(((6-methylpyridin-2-yl)amino)methyl)piperidin-1-yl)(5-methyl-2-(2H-1,2,3-triazol-2-yl)phenyl)methanone], in that order: 310 nM and 5%. For `C[C@@H]1CCCN(C(=O)c2c(F)cccc2-c2ncccn2)[C@@H]1CNc1ncc(Cl)cn1` [Example A239, ((2S,3R)-2-(((5-Chloropyrimidin-2-yl)amino)methyl)-3-methylpiperidin-1-yl)(2-fluoro-6-(pyrimidin-2-yl)phenyl)methanone], in that order: 83 nM and 50%. With `Cc1ccc(-c2ncccn2)c(C(=O)N2CCC[C@@H](C)[C@H]2CNc2ccc(C(F)(F)F)nn2)c1` [Example A137, ((2S,3R)-3-Methyl-2-(((6-(trifluoromethyl)pyridazin-3-yl)amino)methyl)piperidin-1-yl)(5-methyl-2-(pyrimidin-2-yl)phenyl)methanone], the IC50 on OX1 was 31 nM. On CYP3A4, 10 µM produced 47% inhibition. `Cc1ccc(-n2cccn2)c(C(=O)N2CCC[C@@H](C)[C@H]2CNc2ccc(C(F)(F)F)nn2)c1` [Example A157, ((2S,3R)-3-mMethyl-2-(((6-(trifluoromethyl)pyridazin-3-yl)amino)methyl)piperidin-1-yl)(5-methyl-2-(1H-pyrazol-1-yl)phenyl)methanone]: at OX1, the IC50 was found to be 110 nM. In addition, at CYP3A4, 10 µM produced 77% inhibition. With `COc1cccnc1NC[C@@H]1[C@H](C)CCCN1C(=O)c1cc(C)ccc1-c1cnn(C)c1` [Example A101, ((2S,3R)-2-(((3-Methoxypyridin-2-yl)amino)methyl)-3-methylpiperidin-1-yl)(5-methyl-2-(1-methyl-1H-pyrazol-4-yl)phenyl)methanone], the inhibition at 10 µM against CYP3A4 was determined as 83%. Same read-out and setting: under `COc1ccc(NC[C@@H]2[C@H](C)CCCN2C(=O)c2cc(C)ccc2-n2nccn2)nc1` [Example A126, ((2S,3R)-2-(((5-Methoxypyridin-2-yl)amino)methyl)-3-methylpiperidin-1-yl)(5-methyl-2-(2H-1,2,3-triazol-2-yl)phenyl)methanone] stands 56%.

`Cc1ccc(-n2nccn2)c(C(=O)N2CCC[C@@H](C)[C@H]2CNc2ccc(C3CC3)cn2)c1` [Example A136, ((2S,3R)-2-(((5-Cyclopropylpyridin-2-yl)amino)methyl)-3-methylpiperidin-1-yl)(5-methyl-2-(2H-1,2,3-triazol-2-yl)phenyl)methanone] returned an inhibition at 10 µM against CYP3A4 of 91%. Same read-out and setting: the figure for `Cc1ccc(-n2cncn2)c(C(=O)N2CCC[C@@H](C)[C@H]2CNc2nc3cc(Cl)ccc3o2)c1` [Example A28, ((2S,3R)-2-(((5-Chlorobenzo[d]oxazol-2-yl)amino)methyl)-3-methylpiperidin-1-yl)(5-methyl-2-(1H-1,2,4-triazol-1-yl)phenyl)methanone] is 95%. Still for that read-out and setting: the figure for `Cc1ccc(-n2nccn2)c(C(=O)N2CCC[C@@H](C)[C@H]2CNc2ncc(Cl)cn2)c1` [Example A147, ((2S,3R)-2-(((5-Chloropyrimidin-2-yl)amino)methyl)-3-methylpiperidin-1-yl)(5-methyl-2-(2H-1,2,3-triazol-2-yl)phenyl)methanone] is 66%; for `C[C@@H]1CCCN(C(=O)c2cccc(F)c2-n2nccn2)[C@@H]1CNc1ncc(C(F)(F)F)cn1` [Example A256, (3-Fluoro-2-(2H-1,2,3-triazol-2-yl)phenyl)((2S,3R)-3-methyl-2-(((5-(trifluoromethyl)pyrimidin-2-yl)amino)methyl)piperidin-1-yl)methanone] it is 52%; for `C[C@@H]1CCCN(C(=O)c2c(F)cccc2-c2ncccn2)[C@@H]1CNc1ncc(C(F)(F)F)cn1` [Example A240, (2-Fluoro-6-(pyrimidin-2-yl)phenyl)((2S,3R)-3-methyl-2-(((5-(trifluoromethyl)pyrimidin-2-yl)amino)methyl)piperidin-1-yl)methanone] it is 42%.

For the compound `Cc1ccc(-c2ccnn2C)c(C(=O)N2CCC[C@@H](C)[C@H]2CNc2nc3cc(Cl)ccc3o2)c1` [Example A36, ((2S,3R)-2-(((5-Chlorobenzo[d]oxazol-2-yl)amino)methyl)-3-methylpiperidin-1-yl)(5-methyl-2-(1-methyl-1H-pyrazol-5-yl)phenyl)methanone], at CYP3A4, the inhibition at 10 µM was 97%. At CYP3A4, `Cc1ccc(-c2cnn(C)c2)c(C(=O)N2CCC[C@@H](C)[C@H]2CNc2ccc(C(F)(F)F)cn2)n1` [Example A74, ((2S,3R)-3-Methyl-2-(((5-(trifluoromethyl)pyridin-2-yl)amino)methyl)piperidin-1-yl)(6-methyl-3-(1-methyl-H-pyrazol-4-yl)pyridin-2-yl)methanone] returned an inhibition at 10 µM of 74%. Same read-out and setting: the figure for `Cc1ccc(-n2ccc(C)n2)c(C(=O)N2CCC[C@@H](C)[C@H]2CNc2ncc(C#N)cn2)c1` [Example A131, 2-((((2S,3R)-3-Methyl-1-(5-methyl-2-(3-methyl-1H-pyrazol-1-yl)benzoyl)piperidin-2-yl)methyl)amino)pyrimidine-5-carbonitrile] is 84%; for `Cc1ccc(-c2ccccn2)c(C(=O)N2CCC[C@@H](C)[C@H]2CNc2ccc(C(F)(F)F)nn2)n1` [Example A165, ((2S,3R)-3-methyl-2-(((6-(trifluoromethyl)pyridazin-3-yl)amino)methyl)piperidin-1-yl)(6′-methyl-[2,3′-bipyridin]-2′-yl)methanone] it is 42%; for `Cc1cccc(C(=O)N2CCC[C@@H](C)[C@H]2CNc2ncc(C(F)(F)F)cn2)c1-n1nccn1` [Example A267, ((2S,3R)-3-Methyl-2-(((5-(trifluoromethyl)pyrimidin-2-yl)amino)methyl)piperidin-1-yl)(3-methyl-2-(2H-1,2,3-triazol-2-yl)phenyl)methanone] it is 65%.

One may read the inhibition as the change of the read-out against control, counted positive when it falls. A low value points to a weak effect.

The record behind these values is patent publication US9440982B2 (Eolas Therapeutics, Inc., priority 2012, dated 2016).
